Data taken from patent US20090304827A1, “Combinations of Ingredients Having Synergistic Anti-Inflammatory Effects” (priority 2008, published 2009).

Assays:
[1] = tested on: LPS-induced PGE2 production; details: cited from earlier work
iNOS = details: cited from earlier work
[2] = tested on: LPS-induced NO production; details: cited from earlier work
[3] = tested on: RAW 264.7 cells activated with bacterial lipopolysaccharide; details: LPS 50 ng ml^−1; cited from earlier work
[4] = tested on: LPS-induced nitrite (NO) generation on murine macrophage RAW264.7 cells; assay: Nitrite assay: LPS-induced nitrite (NO) generation, Griess reaction; assay type: cell-based; details: either singly or in combination
Description: The term “synergy” refers to the phenomenon in which the combination of two or more discrete agents acting together can cause a greater response than simply the sum of the individual effects of each agent if they were used separately. It is not uncommon to find the presence of two or more chemical constituents or herbs on an organism to be greater than the effect of each chemical constituent or herb individually, or the sum of the individual effects. […]
The nitrite concentration in the medium was measured as an indicator of NO production, a common phenomenon of the inflammation process, according to the Griess reaction. […] One hundred microliters of supernatant was mixed with the same volume of Griess reagent (1% sulfanilamide in 5% phosphoric acid and 0.1% naphthylethylenediamine dihydrocholide in water); absorbance of the mixture at 550 nm was determined with an ELISA plate reader (Dynatech MR-7000; Dynatech Laboratories Inc.).
Various combinations of herbal extracts were investigated for anti-inflammatory effect using nitrite assay. For the study, RAW 264.7 cells were treated with LPS (10 μg/mL) to induce nitrite production, various concentrations and combinations thereof were added, and the nitrite concentration in the medium was measured as an indicator of the inhibition of NO production, a common phenomenon of the inflammation process.

| Compound | COX-2 gene expression / activation [1] | LPS-induced PGE2 production [1] | iNOS enzyme activity (iNOS) | LPS-induced NO production [2] | iNOS gene expression / activation [2] | NO generation in activated macrophages (nitrite released into the culture medium) [3] | amount of cytosolic iNOS protein and steady state mRNA levels [3] | anti-inflammatory property (inhibition of NO production) [4] |
| --- | --- | --- | --- | --- | --- | --- | --- | --- |
| O=C(O)[C@H]1O[C@@H](Oc2cc3oc(-c4ccccc4)cc(=O)c3c(O)c2O)[C@H](O)[C@@H](O)[C@@H]1O [Baicalin] | not | not | did not inhibit | significantly inhibited | significantly inhibited | – | – | – |
| COc1c(O)cc2oc(-c3ccccc3)cc(=O)c2c1O [Oroxylin A] | blocking | potent inhibitor | – | potent inhibitor | blocking | – | – | – |
| Oc1ccc(C=Cc2cc(O)cc(O)c2)cc1 [Resveratrol] | – | – | – | – | – | strongly to inhibit | strongly reduced | – |
| O=C1O[C@H]([C@@H](O)CO)C(O)=C1O [Vitamin C, L-ascorbate] | – | – | – | – | – | – | – | did not show any noticeable anti-inflammatory property |
| O=c1cc(-c2ccccc2)oc2cc(O)c(O)c(O)c12 [baicalein] | not | not | did not inhibit | significantly inhibited | significantly inhibited | – | – | – |
| COc1c(O)cc(O)c2c(=O)cc(-c3ccccc3)oc12 [wogonin] | inhibited | inhibited | did not inhibit | significantly inhibited | significantly inhibited | – | – | – |
| Tocopherol [vitamin E] | – | – | – | – | – | – | – | did not show any noticeable anti-inflammatory property |
